In patent US7585880B2, “Phenylpropanoic acid derivatives” (Takeda Pharmaceutical Company Limited, priority 2003, dated 2009):

Test system: not given
Experiment: not given
Conditions: not given

Q: With `O=C(O)CCc1ccc(OCc2ccc(CN(CCc3ccccc3)c3nc(-c4ccccc4)cs3)cc2)cc1` [Example 32, 3-[4-[[4-[[(2-phenylethyl)(4-phenyl-1,3-thiazol-2-yl)amino]methyl]benzyl]oxy]phenyl]propanoic acid] as the compound, how does the melting point read?
A: Its melting point is 114 to 115 °C.

Target: T1, human GPR40 (Homo sapiens, UniProt O14842)
T1 construct: expressed in transfected cells
T1 sequence (O14842 whole entry): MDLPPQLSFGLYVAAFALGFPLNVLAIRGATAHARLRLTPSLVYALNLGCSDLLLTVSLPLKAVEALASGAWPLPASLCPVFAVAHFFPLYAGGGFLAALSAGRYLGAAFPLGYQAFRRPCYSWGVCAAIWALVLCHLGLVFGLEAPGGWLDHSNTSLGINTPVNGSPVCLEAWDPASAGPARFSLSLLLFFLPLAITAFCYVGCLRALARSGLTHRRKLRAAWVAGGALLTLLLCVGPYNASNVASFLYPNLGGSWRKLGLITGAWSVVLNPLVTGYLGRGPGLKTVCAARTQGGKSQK
Experiment: Determination of EC50 against human GPR40: intracellular calcium change by FLIPR in CHO cells
Type: cell-based
Conditions: CHO cell line that stably expressed human GPR40; changes in intracellular calcium concentration measured by FLIPR (Fluo3-AM)
Description: Determination of EC50 of the Compound of the Present Invention Against Human GPR40
For determination of EC50, CHO cell line that stably expressed human GPR40 was used. Unless otherwise indicated, the CHO cell line was cultured using α-MEM medium (Invitrogen) containing 10% fetal calf serum (Invitrogen).
The cells cultured to nearly confluent were rinsed with PBS (Invitrogen) on the previous day of the assay, peeled off with 0.05% Trypsin-EDTA solution (Invitrogen) and recovered by centrifugation. The number of the obtained cells was counted, and the cells were diluted such that 3×10^5 cells were contained per 1 mL of the medium, dispensed to a black welled 96-well plate (coster) by 100 μL per well and cultured overnight in a CO2 incubator. Various test compounds were added to the CHO cells thus prepared, and the changes in the intracellular calcium concentration was measured using FLIPR (Molecular Device). The below-mentioned pre-treatment was applied to measure changes in the intracellular calcium concentration by FLIPR.
An assay buffer for adding a fluorescent dye Fluo3-AM (DOJIN) to the cells, or for washing the cells immediately before FLIPR assay was prepared. To a solution of 1M HEPES (pH 7.4, DOJIN, 20 mL) added to HBSS (Invitrogen, 1000 mL) (hereinafter HBSS/HEPES solution) was added a solution (10 mL) obtained by dissolving probenecid (Sigma, 710 mg) in 1N NaOH (5 mL), and adding and mixing an HBSS/HEPES solution (5 mL), and the resulting solution was used as an assay buffer. Fluo3-AM (50 μg) was dissolved in dimethylsulfoxide (Wako, 21 μL), and an equivalent amount of 20% pluronic acid (Molecular Probes) was added and mixed. The solution was added to the assay buffer (10.6 mL) supplemented with fetal calf serum (105 μL) to give a fluorescent dye solution. On the previous day of assay, the medium of the CHO cells newly inoculated to the black welled 96-well plate was removed, the fluorescent dye solution was immediately dispensed by 100 μL per well and the cells were cultured in a CO2 incubator for 1 hr to allow intake of the fluorescent dye by the cells. The cells after the culture were washed with the above-mentioned assay buffer and set on FLIPR. The test compound was diluted with dimethylsulfoxide in advance, dispensed to polypropylene 96-well plate (sample plate) by 2 μL, and cryopreserved at −20° C. To the thawed sample plate was added an assay buffer containing 0.015% CHAPS (DOJIN) by 198 μL, and simultaneously set on FLIPR together with the cell plate. After the aforementioned pre-treatment, changes in the intracellular calcium concentration upon addition of various test compounds was measured by FLIPR. Based on the results, a dose-response curve of each test compound was formed and EC50 was calculated.

Q: For `CC(C)c1csc(N(CCc2ccccc2)Cc2ccc(COc3ccc(CCC(=O)O)cc3)cc2)n1` [Example 2, 3-{4-[(4-{[(4-isopropyl-1,3-thiazol-2-yl)(2-phenylethyl)amino]methyl}benzyl)oxy]phenyl}propanoic acid], which EC50 is on record?
A: The EC50 was 48 nM.

Q: For `CC(C)c1csc(N(CCc2ccc(F)cc2)Cc2ccc(COc3ccc(CCC(=O)O)c(F)c3)cc2)n1` [Example 9, 3-{2-fluoro-4-[(4-{[[2-(4-fluorophenyl)ethyl](4-isopropyl-1,3-thiazol-2-yl)amino]methyl}benzyl)oxy]-phenyl}propanoic acid], which EC50 is on record?
A: Its EC50 is 38 nM.

Q: Which EC50 does the source give for `O=C(O)CCc1ccc(OCc2ccc(CN(CCc3ccccn3)c3nc(-c4ccccc4)cs3)cc2)cc1` [Example 12, 3-{4-[(4-([(4-phenyl-1,3-thiazol-2-yl)(2-pyridin-2-ylethyl)amino]methyl}benzyl)oxy]phenyl)propanoic acid] here?
A: The EC50 was 19 nM.

Q: Which EC50 does the source give for `CCCN(Cc1ccc(COc2ccc(CCC(=O)O)cc2)cc1)c1nc(-c2ccccc2)c(C)o1` [Example 40, 3-[4-[[4-[[(5-methyl-4-phenyl-1,3-oxazol-2-yl)(propyl)amino]methyl]benzyl]oxy]phenyl]propanoic acid] here?
A: The EC50 was 55 nM.

Q: With `O=C(O)CCc1c(F)cc(OCc2ccc(CN(CCc3ccccc3)c3nc(-c4ccccc4)cs3)cc2)cc1F` [Example 42, 3-[2,6-difluoro-4-[[4-[[(2-phenylethyl)(4-phenyl-1,3-thiazol-2-yl)amino]methyl]benzyl]oxy]phenyl]propanoic acid] as the compound, how does the EC50 read?
A: Its EC50 is 65 nM.
